From patent publication US7011816B2, “Labeling targeting agents with gallium-68 and gallium-67” (Immunomedics, Inc., priority 2001, dated 2006)
*1 amine or outer side, *2 acyl side, *3 side chain or, on linkers, in order; H or OH if unused. Where a SMILES comes first, the peptide text is derived from it. Side-chain parts run from the residue outwards. [ ]: non-standard residue; d: D form. The star is where a group is joined. DOTA = O=C(O)CN1CCN(CC(=O)O)CCN(CC(=O)*)CCN(CC(=O)O)CC1; NH(2-(imidazol-4-yl)ethyl) = c1ncc(CCN*)[nH]1; Suc = O=C(CCC(=O)[*:2])[*:1]

What was measured:
Set-up in all cases: species or system nude mice
[1] = in vivo; details: nude, mouse, total radioactivity
Method: (§1) The bispecific antibody I-125-hMN-14×679-F(ab′)2 (anti-CEA×anti-HSG, radiolabeled with iodine-125 as a tracer radionuclide) was injected into nude mice bearing GW39 human colon tumor xenografts. Twenty-four hours later, the Ga-67-IMP 241 peptide, prepared according to the method described in Example # 4, was injected. At specified times post-injection, five animals per time-point were sacrificed and tissues collected and counted for both I-125 and Ga-67 radioactivity, using dual energy windows for each respective radionuclide. Additionally, biodistribution of Ga-67-IMP 241 given alone, without bsAb pretargeting is shown in Table 3 (four animals per group in this series). In each Table, the data is presented in terms of percent injected dose per gram of tissue (± standard deviation). Additionally, the biodistribution data for I-125-hMN-14×679-F(ab′)2 and Ga-67-IMP 241, from the same experiment, is reported in terms of tumor-to non-tumor ratio (T/NT) (Tables 4 & 5, for 1–125 and Ga-67, respectively).

[2] = tested on: GW39 human colon tumor xenografts; experiment: in vivo; details: mouse
Method: as §1

[3] = tested on: GW39 human colon tumor xenografts; details: mouse, in vivo
Method: as §1

[4] = Tumor-to-tissue ratio Lg. Intestine
[5] = Tumor-to-tissue ratio Sm. Intestine

Work on `NC(=O)[C@H](CCCCNC(=O)CNC(=O)CCC(=O)NCCc1cnc[nH]1)NC(=O)[C@@H](Cc1ccc(O)cc1)NC(=O)[C@H](CCCCNC(=O)CNC(=O)CCC(=O)NCCc1cnc[nH]1)NC(=O)[C@H](Cc1ccccc1)NC(=O)CN1CCN(CC(=O)O)CCN(CC(=O)O)CCN(CC(=O)O)CC1` [Ga-67-IMP 241, metal not drawn] ({DOTA}-FK([Gly-Suc-NH(2-(imidazol-4-yl)ethyl)])[dY]K([Gly-Suc-NH(2-(imidazol-4-yl)ethyl)])-NH2) yielded a tissue to tissue ratio at 1 h ([1]; Tumor-to-tissue ratio Blood) of 1.7 ± 0.8, a tissue to tissue ratio at 2 h ([1]; Tumor-to-tissue ratio Blood) of 6.1 ± 5 and a tissue to tissue ratio at 3 h ([1]; Tumor-to-tissue ratio Blood) of 8.5 ± 9.5. For the same compound, the tissue to tissue ratio at 4 h ([1]; Tumor-to-tissue ratio Blood) was 8.7 ± 4.6, the tissue to tissue ratio at 6 h ([1]; Tumor-to-tissue ratio Blood) was 12.1 ± 8 and the tissue to tissue ratio at 1 h ([1]; Tumor-to-tissue ratio Bone) was 11.5 ± 11. The tissue to tissue ratio at 2 h ([1]; Tumor-to-tissue ratio Bone) was 24.6 ± 15.1, the tissue to tissue ratio at 3 h ([1]; Tumor-to-tissue ratio Bone) was 17.8 ± 13.7 and the tissue to tissue ratio at 4 h ([1]; Tumor-to-tissue ratio Bone) was 18.3 ± 3.1. For the same compound, the tissue to tissue ratio at 6 h ([1]; Tumor-to-tissue ratio Bone) was 53 ± 41.7, the tissue to tissue ratio at 1 h ([1]; Tumor-to-tissue ratio Kidney) was 2.3 ± 1.6 and the tissue to tissue ratio at 2 h ([1]; Tumor-to-tissue ratio Kidney) was 3.5 ± 2.2. It also gave a tissue to tissue ratio at 3 h ([1]; Tumor-to-tissue ratio Kidney) of 2.4 ± 1.8, a tissue to tissue ratio at 4 h ([1]; Tumor-to-tissue ratio Kidney) of 3.1 ± 1.1 and a tissue to tissue ratio at 6 h ([1]; Tumor-to-tissue ratio Kidney) of 4.3 ± 2.7. For the same compound, the tissue to tissue ratio at 1 h [1, 4] was 67.3 ± 44.1, the tissue to tissue ratio at 2 h [1, 4] was 74.2 ± 55 and the tissue to tissue ratio at 3 h [1, 4] was 72.7 ± 89. The tissue to tissue ratio at 4 h [1, 4] was 56.5 ± 21.7, the tissue to tissue ratio at 6 h [1, 4] was 162 ± 270 and the tissue to tissue ratio at 1 h ([1]; Tumor-to-tissue ratio Liver) was 8 ± 3.8. The tissue to tissue ratio at 2 h ([1]; Tumor-to-tissue ratio Liver) was 15.9 ± 8.9, the tissue to tissue ratio at 3 h ([1]; Tumor-to-tissue ratio Liver) was 13.1 ± 12 and the tissue to tissue ratio at 4 h ([1]; Tumor-to-tissue ratio Liver) was 16.2 ± 8.6. For the same compound, the tissue to tissue ratio at 6 h ([1]; Tumor-to-tissue ratio Liver) was 16 ± 10.5, the tissue to tissue ratio at 1 h ([1]; Tumor-to-tissue ratio Lungs) was 4.5 ± 1.9 and the tissue to tissue ratio at 2 h ([1]; Tumor-to-tissue ratio Lungs) was 13.1 ± 7.5. It also gave a tissue to tissue ratio at 3 h ([1]; Tumor-to-tissue ratio Lungs) of 11.4 ± 11.1, a tissue to tissue ratio at 4 h ([1]; Tumor-to-tissue ratio Lungs) of 13.5 ± 5.9 and a tissue to tissue ratio at 6 h ([1]; Tumor-to-tissue ratio Lungs) of 20.2 ± 12.5. The tissue to tissue ratio at 1 h [1, 5] was 18.6 ± 9.1, the tissue to tissue ratio at 2 h [1, 5] was 27.7 ± 9.1 and the tissue to tissue ratio at 3 h [1, 5] was 35.5 ± 26. For the same compound, the tissue to tissue ratio at 4 h [1, 5] was 22 ± 12.7, the tissue to tissue ratio at 6 h [1, 5] was 47.2 ± 35.9 and the tissue to tissue ratio at 1 h ([1]; Tumor-to-tissue ratio Spleen) was 10.7 ± 7.2. It also gave a tissue to tissue ratio at 2 h ([1]; Tumor-to-tissue ratio Spleen) of 26.6 ± 28.7, a tissue to tissue ratio at 3 h ([1]; Tumor-to-tissue ratio Spleen) of 16.3 ± 13.1 and a tissue to tissue ratio at 4 h ([1]; Tumor-to-tissue ratio Spleen) of 26.1 ± 23.4. For the same compound, the tissue to tissue ratio at 6 h ([1]; Tumor-to-tissue ratio Spleen) was 17.4 ± 12.7, the tissue to tissue ratio at 1 h ([1]; Tumor-to-tissue ratio Stomach) was 36.7 ± 22.8 and the tissue to tissue ratio at 2 h ([1]; Tumor-to-tissue ratio Stomach) was 52.8 ± 17.6. It also gave a tissue to tissue ratio at 3 h ([1]; Tumor-to-tissue ratio Stomach) of 73.6 ± 47.4, a tissue to tissue ratio at 4 h ([1]; Tumor-to-tissue ratio Stomach) of 56.9 ± 36 and a tissue to tissue ratio at 6 h ([1]; Tumor-to-tissue ratio Stomach) of 112 ± 60.7. For the same compound, the “Tumor-to-tissue ratio Blood” value [2] was “above 6:1”, the “Tumor-to-tissue ratio Kidney” value [2] was ~3.5:1 and the “Clearance when given alone” value [3] was “essentially clears completely within the first hour post-injection”.
